The record followed here is patent publication US20140045823A1 (Neurocrine Biosciences, Inc., priority 2012, published 2014).

pEC50: −log10 of the molar value.

This test concerns the target T1, human GPR119 (Homo sapiens, UniProt Q8TDV5).
T1 construct: expression vector for human GPR119 cDNA (Acc. No. NP_848566); expressed in transfected cells; Min-6/hGPR119
T1 sequence (Q8TDV5 1-335): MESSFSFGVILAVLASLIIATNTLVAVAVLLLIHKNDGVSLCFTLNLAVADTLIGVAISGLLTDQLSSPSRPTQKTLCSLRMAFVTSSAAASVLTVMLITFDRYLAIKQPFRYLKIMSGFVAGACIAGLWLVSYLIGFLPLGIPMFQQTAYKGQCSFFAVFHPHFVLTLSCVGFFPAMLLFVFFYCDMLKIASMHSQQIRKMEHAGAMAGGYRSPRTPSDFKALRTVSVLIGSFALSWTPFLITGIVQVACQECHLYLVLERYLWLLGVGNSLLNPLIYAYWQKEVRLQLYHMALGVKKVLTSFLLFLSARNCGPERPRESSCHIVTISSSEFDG
As to the kind of experiment: AlphaScreen cAMP assay in MIN6 cells stably transfected with human GPR119. Format: cell-based. The following applies: Min-6/hGPR119 cells, 45 min at room temperature. The procedure: The compounds of formula I according to the invention modulate the activity of the G-protein-coupled receptor GPR119. The effect of the compounds on the activation of GPR119 and on the stimulation of intracellular cAMP concentration is determined using the AlphaScreen cAMP Assay Kit (Cat. No. #6760625R) made by PerkinElmer.
MIN6 cells [Miyazaki J et al. Endocrinology. 1990 July; 127(1):126-32] are stably transfected with an expression vector for human GPR119 cDNA (Acc. No. NP_848566). Min-6/hGPR119 cells are cultured in DMEM, 10% FBS, 50 μM β-mercaptoethanol, 0.3 mg/mL Geniticin, 2 mM GlutaMAX at 37° C. 5% CO2. For the assay, the cells are seeded in Optiplates (white, 384-well, 160 W—barcoded, TC, sterile with lid, Cat. No. #6007688 (Perkin Elmer); 10000 cells/well; 50 μl). The plates covered with lids are then incubated for 24 hours at 37° C./5% CO2. After the medium is aspirated from the wells completely, 10 μl of the test compound are added, the compounds are diluted using stimulating buffer (140 mM NaCl, 3.6 mM KCl, 0.5 mM NaH2PO4, 0.5 mM MgSO4, 1.5 mM CaCl2, 10 mM Hepes, 5 mM NaHCO3; pH 7.4. 0.5 mM IBMX and 0.1% BSA, the final DMSO concentration is 1%). After 45 minutes incubation at room temperature (approx. 20° C.), the cAMP concentrations are determined using the AlphaScreen cAMP Assay Kit (Cat. No. #6760625R from PerkinElmer).
`CCc1nccn1-c1ncc(C(=O)N(C2CC2)C2CCN(C(=O)OC(C)C)CC2)cn1` [Example 52, 4-{Cyclopropyl-[2-(2-ethyl-imidazol-1-yl)-pyrimidine-5-carbonyl]-amino}-piperidine-1-carboxylic acid isopropyl ester]: the pEC50 was 6.68.
The same measure for `CC(C)OC(=O)N1CCC(N(C(=O)c2cnc(-c3ccc(S(C)(=O)=O)cc3)nc2)C2CC2)CC1` [Example 53, 4-{Cyclopropyl-[2-(4-methanesulfonyl-phenyl)-pyrimidine-5-carbonyl]-amino}-piperidine-1-carboxylic acid isopropyl ester]: 6.92; for `Cc1nccn1-c1ncc(C(=O)N(C2CC2)C2CCN(C(=O)OC(C)C)CC2)cn1` [Example 54, 4-{Cyclopropyl-[2-(2-methyl-imidazol-1-yl)-pyrimidine-5-carbonyl]-amino}-piperidine-1-carboxylic acid isopropyl ester]: 6.89.
With `Cc1nccn1-c1ncc(C(=O)N(C2CC2)C2CCN(C(=O)OC3(C)CC3)CC2)cn1` [Example 55, 4-{Cyclopropyl-[2-(2-methyl-imidazol-1-yl)-pyrimidine-5-carbonyl]-amino}-piperidine-1-carboxylic acid 1-methyl-cyclopropyl ester] the figure was 6.97.
With `CC(C)(C)OC(=O)N1CCC(N(C(=O)c2cnc(-n3cccn3)nc2)C2CC2)CC1` [Example 56, 4-[Cyclopropyl-(2-pyrazol-1-yl-pyrimidine-5-carbonyl)-amino]-piperidine-1-carboxylic acid tert-butyl ester] the figure was 5.56; with `Cc1cc(C)n(-c2ncc(C(=O)N(C3CC3)C3CCN(C(=O)OC(C)(C)C)CC3)cn2)n1` [Example 57, 4-{Cyclopropyl-[2-(3,5-dimethyl-pyrazol-1-yl)-pyrimidine-5-carbonyl]-amino}-piperidine-1-carboxylic acid tert-butyl ester], 5.43.
Regarding `CC(C)(C)OC(=O)N1CCC(N(C(=O)c2cnc(-n3cc(CCO)cn3)nc2)C2CC2)CC1` [Example 58, 4-(Cyclopropyl-{2-[4-(2-hydroxy-ethyl)-pyrazol-1-yl]-pyrimidine-5-carbonyl}-amino)-piperidine-1-carboxylic acid tert-butyl ester], the pEC50 was 5.66.
In the case of `CCOc1ccc(-c2ncc(C(=O)N(C3CC3)C3CCN(C(=O)OC(C)C)CC3)cn2)cn1` [Example 59, 4-{Cyclopropyl-[2-(6-ethoxy-pyridin-3-yl)-pyrimidine-5-carbonyl]-amino}-piperidine-1-carboxylic acid isopropyl ester], the pEC50 is 6.78.
With `CC(C)OC(=O)N1CCC(N(C(=O)c2cnc(-c3ccc(CC#N)cc3)nc2)C2CC2)CC1` [Example 60, 4-{[2-(4-Cyanomethyl-phenyl)-pyrimidine-5-carbonyl]-cyclopropyl-amino}-piperidine-1-carboxylic acid isopropyl ester] the figure was 7.12.
With `CC(C)OC(=O)N1CCC(N(C(=O)c2cnc(-c3ccc(C#N)c(F)c3)nc2)C2CC2)CC1` [Example 61, 4-{[2-(4-Cyano-3-fluoro-phenyl)-pyrimidine-5-carbonyl]-cyclopropyl-amino}-piperidine-1-carboxylic acid isopropyl ester] the figure was 7.89.
On to `CC(C)(C)OC(=O)N1CCC(N(C(=O)c2ccc(-c3cccc([N+](=O)[O-])c3)o2)C2CC2)CC1` [Example 62, 4-{Cyclopropyl-[5-(3-nitro-phenyl)-furan-2-carbonyl]-amino}-piperidine-1-carboxylic acid tert-butyl ester], for which the pEC50 was 6.10.
The same measure for `CC(C)(C)OC(=O)N1CCC(N(C(=O)c2cnc(-c3ccncc3)nc2)C2CC2)CC1` [Example 63, 4-[Cyclopropyl-(2-pyridin-4-yl-pyrimidine-5-carbonyl)-amino]-piperidine-1-carboxylic acid tert-butyl ester]: 7.38; for `CC(C)(C)OC(=O)N1CCC(N(C(=O)c2cc(-c3cccc([N+](=O)[O-])c3)[nH]n2)C2CC2)CC1` [Example 64, 4-{Cyclopropyl-[5-(3-nitro-phenyl)-1H-pyrazole-3-carbonyl]-amino}-piperidine-1-carboxylic acid tert-butyl ester]: 6.03.
With `CC(C)(C)OC(=O)N1CCC(N(C(=O)c2cc(-c3ccc([N+](=O)[O-])cc3)[nH]n2)C2CC2)CC1` [Example 65, 4-{Cyclopropyl-[5-(4-nitro-phenyl)-1H-pyrazole-3-carbonyl]-amino}-piperidine-1-carboxylic acid tert-butyl ester] the figure was 5.93.
Compound `CC(C)(C)OC(=O)N1CCC(N(C(=O)c2ncc(-c3ccc(C#N)c(F)c3)cn2)C2CC2)CC1` [Example 66, 4-{[5-(4-Cyano-3-fluoro-phenyl)-pyrimidine-2-carbonyl]-cyclopropyl-amino}-piperidine-1-carboxylic acid tert-butyl ester] had a pEC50 of 6.20.
With `CC(C)(C)OC(=O)N1CCC(N(C(=O)c2ncc(-c3ccc(CC#N)cc3)cn2)C2CC2)CC1` [Example 67] the figure was 6.66.
With `CC(C)(C)OC(=O)N1CCC(N(C(=O)c2ncc(-c3ccc(S(C)(=O)=O)cc3)cn2)C2CC2)CC1` [Example 68, 4-{Cyclopropyl-[5-(4-methanesulfonyl-phenyl)-pyrimidine-2-carbonyl]-amino}-piperidine-1-carboxylic acid tert-butyl ester] the figure was 6.26.
The same measure for `CC(C)(C)OC(=O)N1CCC(N(C(=O)c2ncc(-c3ccc(C#N)nc3)cn2)C2CC2)CC1` [Example 69, 4-{[5-(6-Cyano-pyridin-3-yl)-pyrimidine-2-carbonyl]-cyclopropyl-amino}-piperidine-1-carboxylic acid tert-butyl ester]: 5.95; for `CC(C)(C)OC(=O)N1CCC(N(C(=O)c2cnc(-c3cccnc3)nc2)C2CC2)CC1` [Example 70, 4-[Cyclopropyl-(2-pyridin-3-yl-pyrimidine-5-carbonyl)-amino]-piperidine-1-carboxylic acid tert-butyl ester]: 6.31; for `CC(C)(C)OC(=O)N1CCC(N(C(=O)c2cnc(-c3cncnc3)nc2)C2CC2)CC1` [Example 71, 4-[([2,5′]Bipyrimidinyl-5-carbonyl)-cyclopropyl-amino]-piperidine-1-carboxylic acid tert-butyl ester]: 7.05.
The compound `CC(C)(C)OC(=O)N1CCC(N(C(=O)c2cnc(-c3ccc(C#N)cc3)nc2)C2CC2)CC1` [Example 72, 4-{[2-(4-Cyano-phenyl)-pyrimidine-5-carbonyl]-cyclopropyl-amino}-piperidine-1-carboxylic acid tert-butyl ester] showed a pEC50 of 7.85.
With `COc1ccccc1-c1ncc(C(=O)N(C2CC2)C2CCN(C(=O)OC(C)(C)C)CC2)cn1` [Example 73, 4-{Cyclopropyl-[2-(2-methoxy-phenyl)-pyrimidine-5-carbonyl]-amino}-piperidine-1-carboxylic acid tert-butyl ester] the figure was 5.78; with `COc1cccc(-c2ncc(C(=O)N(C3CC3)C3CCN(C(=O)OC(C)(C)C)CC3)cn2)c1` [Example 74, 4-{Cyclopropyl-[2-(3-methoxy-phenyl)-pyrimidine-5-carbonyl]-amino}-piperidine-1-carboxylic acid tert-butyl ester], 5.99.

Usually pEC50 stands for the negative decadic logarithm of the EC50, by convention in mol/L. Low readings indicate a high EC50, high ones a low EC50.
